“Also recorded” adds a separate entry of the source. Read-outs that look alike come from different tables or passages of the source. Where no end group is shown, it is not given here.

Broadly, the Ki is a measure of affinity in units of concentration, obtained from inhibition or displacement. Lower therefore signals higher affinity. One may read the IC50 as the midpoint of a concentration-inhibition curve. A higher IC50 goes with lower potency. The term EC50 denotes the concentration at which the effect is half-maximal. Low values mean a more potent agent, high ones a less potent agent. In general, kcat/Km refers to the second-order rate constant that governs catalysis at low substrate concentration.

Data set [1] addresses T1, ERK2 (Rattus norvegicus, UniProt P63086). The format is biochemical.
Data set [2] deals with T1, ERK2. In words: Kinetics of Sub-F phosphorylation by ERK2 at saturating Lig-D. The format is biochemical.
The target of data set [3] is T1, ERK2. In words: Inhibition patterns for the phosphorylation of Sub-F by ERK2. The format is biochemical.
In data set [4] the target is T1, ERK2. In words: Dose-response effect of docking ligands on ERK2 phosphorylation of Sub-D. The data set is classed as biochemical.
Data set [5] concerns the target T1, ERK2. In words: Dose-response effect of docking ligands on ERK2 phosphorylation of Sub-F. The format is biochemical.
The target of data set [6] is T1, ERK2. In words: Inhibition patterns for the phosphorylation of Sub-D by ERK2. The data set is classed as biochemical.
Data set [7] has as its target T1, ERK2. Particulars: protein substrate; cited from earlier work.
The next data set relates to ERK•Ets-1 complex. To be noted: cited from earlier work.

T1 sequence (P63086 whole entry): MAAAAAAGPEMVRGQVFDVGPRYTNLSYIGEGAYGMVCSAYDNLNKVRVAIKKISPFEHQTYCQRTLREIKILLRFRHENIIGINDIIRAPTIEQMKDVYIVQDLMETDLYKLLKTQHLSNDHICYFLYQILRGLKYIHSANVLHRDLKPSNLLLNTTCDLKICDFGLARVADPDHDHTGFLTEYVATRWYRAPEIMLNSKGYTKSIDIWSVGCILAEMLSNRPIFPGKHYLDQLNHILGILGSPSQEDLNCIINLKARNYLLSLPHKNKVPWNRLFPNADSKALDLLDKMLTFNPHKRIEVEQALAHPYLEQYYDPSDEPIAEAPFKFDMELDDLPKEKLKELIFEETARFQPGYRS

Turning to YAEPLTPRILAKWEWPA-NH2 [Sub-F], the Ki on ERK2 [1] came to 3.3 ± 1.1 µM; at ERK2 [2], 5 ± 2 µM.

With Ac-YAPRAPAKLAFQFPSR-NH2 [Lig-F], the Mechanism of inhibition entry was “Noncompetitive” at ERK2 [3] (varied MgATP, fixed Sub-F) and “Competitive” on ERK2 [3] (varied Sub-F, fixed MgATP). Besides, at ERK2 [4] (Fig. 5A, Sub-D 3 μM, 1 mM MgATP, increasing ligand), the “Effect on Sub-D phosphorylation (kobs)” value was “no effect on kobs for the phosphorylation of Sub-D; also recorded: no effect on the ability of ERK2 to phosphorylate Sub-D”. On ERK2 [5], this molecule returned an IC50 of 35 ± 3 µM. Further, the “Effect on Sub-F phosphorylation (kobs)” value on ERK2 [5] (Fig. 5B, Sub-F 15 μM, 1 mM MgATP, increasing ligand) is “competitively inhibits Sub-F”.

`CC(=O)N[C@@H](Cc1ccccc1)C(=O)N[C@@H](CCC(N)=O)C(=O)N[C@@H](CCCNC(=N)N)C(=O)N[C@@H](CCCCN)C(=O)N[C@H](C(=O)N[C@@H](CC(C)C)C(=O)N[C@@H](CCC(N)=O)C(=O)N[C@@H](CCCNC(=N)N)C(=O)N[C@@H](CCCNC(=N)N)C(=O)N[C@@H](CC(N)=O)C(=O)N[C@@H](CC(C)C)C(=O)N[C@@H](CCCCN)C(=O)NCC(=O)N[C@@H](CC(C)C)C(=O)N[C@@H](CC(N)=O)C(=O)N[C@@H](CC(C)C)C(=O)N[C@@H](CC(N)=O)C(=O)N[C@@H](CC(C)C)C(N)=O)[C@@H](C)O` [Lig-D]: 30 ± 4 µM corresponded to half-maximal inhibition at ERK2 [4] (IC50). Also, at ERK2 [5], it took 10 ± 8 µM to reach a half-maximal effect (EC50).

`Nc1ncnc2c1ncn2[C@@H]1O[C@H](COP(=O)([O-])OP(=O)([O-])O)[C@@H](O)[C@H]1O.[Mg+2]` [MgADP]: the Mechanism of inhibition result was “competitive pattern for towards MgATP^2-” at ERK2 [6] (varied MgATP, fixed Sub-D); “Noncompetitive” at ERK2 [6] (varied Sub-D, fixed MgATP); “competitive pattern for towards MgATP^2-” at ERK2 [3] (varied MgATP, fixed Sub-F); “Noncompetitive” on ERK2 [3] (varied Sub-F, fixed MgATP).

B1: Ets: murine (His6-tagged)Ets1(1-138), protein substrate of ERK2 (protein, UniProt P27577 1-138, looked up, fragment)
chain: MKAAVDLKPTLTIIKTEKVDLELFPSPDMECADVPLLTPSSKEMMSQALKATFSGFTKEQQRLGIPKDPRQWTETHVRDWVMWAVNEFSLKGVDFQKFCMSGAALCALGKECFLELAPDFVGDILWEHLEILQKEDVK
modifications: His6 tag
For the molecule B1, the kcat with ERK2 [1] (Table 1, fit to eqn. 2, 27 °C, pH 7.4, 2 nM ERK2) is listed as 17 ± 1 S^−1. In the data set with ERK2 [7], the “Kinetic mechanism of phosphorylation” value is given as “random-order mechanism” and the kcat/Km was 6e+06 M⁻¹ s⁻¹. Also, the “stabilization of the ERK•Ets-1 complex by Ets-1 N-terminus docking to the DRS” value in the data set with ERK•Ets-1 complex was “approximately 10 fold”.
